In paper PMC7044277 (Nature Communications, 2020):
Where “and” joins values, the source holds several entries; their conditions need not be identical. Equal entries are not always repeated.

Tests used:
Format in all cases: cell-based
320 non-olfactory GPCRs [1] = biological target: 320 non-olfactory GPCRs (Homo sapiens, UniProt P21462)
320 non-olfactory GPCRs [2] = biological target: T1, 320 non-olfactory GPCRs (Homo sapiens, UniProt P51677)
T1 construct: expressed in transfected cells; host or cells: HTLA cells
T1 sequence (P51677 whole entry): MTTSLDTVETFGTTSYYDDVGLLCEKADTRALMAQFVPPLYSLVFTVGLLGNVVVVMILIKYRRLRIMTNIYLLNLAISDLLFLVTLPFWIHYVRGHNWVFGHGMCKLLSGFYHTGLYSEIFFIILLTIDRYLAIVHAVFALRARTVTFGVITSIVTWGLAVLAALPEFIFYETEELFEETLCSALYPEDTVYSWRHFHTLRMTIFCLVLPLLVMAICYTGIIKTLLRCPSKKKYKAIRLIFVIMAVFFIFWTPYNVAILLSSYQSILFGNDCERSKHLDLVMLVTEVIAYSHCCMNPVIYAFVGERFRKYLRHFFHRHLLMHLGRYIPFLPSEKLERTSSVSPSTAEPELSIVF

320 non-olfactory GPCRs [3] = biological target: 320 non-olfactory GPCRs (Homo sapiens, UniProt P21917)
Sequence of 320 non-olfactory GPCRs (Homo sapiens, UniProt P21917) (P21917 whole entry): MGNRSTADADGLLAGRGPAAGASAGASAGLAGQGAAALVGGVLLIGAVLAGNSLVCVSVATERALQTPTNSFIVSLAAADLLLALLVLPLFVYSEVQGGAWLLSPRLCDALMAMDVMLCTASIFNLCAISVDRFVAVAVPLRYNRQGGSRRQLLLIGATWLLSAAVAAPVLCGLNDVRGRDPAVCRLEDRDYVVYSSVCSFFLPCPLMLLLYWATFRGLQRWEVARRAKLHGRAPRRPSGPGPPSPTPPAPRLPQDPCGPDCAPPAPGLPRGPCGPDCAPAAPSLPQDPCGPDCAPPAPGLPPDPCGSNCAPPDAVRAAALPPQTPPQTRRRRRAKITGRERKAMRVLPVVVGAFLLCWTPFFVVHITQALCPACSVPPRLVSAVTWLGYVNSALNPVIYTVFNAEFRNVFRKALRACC

320 non-olfactory GPCRs [4] = biological target: T2, 320 non-olfactory GPCRs (Homo sapiens, UniProt P47900); conditions: receptor P2RY1; replicate values, Fig_4g
T2 construct: expressed in transfected cells; host or cells: HTLA cells
T2 sequence (P47900 whole entry): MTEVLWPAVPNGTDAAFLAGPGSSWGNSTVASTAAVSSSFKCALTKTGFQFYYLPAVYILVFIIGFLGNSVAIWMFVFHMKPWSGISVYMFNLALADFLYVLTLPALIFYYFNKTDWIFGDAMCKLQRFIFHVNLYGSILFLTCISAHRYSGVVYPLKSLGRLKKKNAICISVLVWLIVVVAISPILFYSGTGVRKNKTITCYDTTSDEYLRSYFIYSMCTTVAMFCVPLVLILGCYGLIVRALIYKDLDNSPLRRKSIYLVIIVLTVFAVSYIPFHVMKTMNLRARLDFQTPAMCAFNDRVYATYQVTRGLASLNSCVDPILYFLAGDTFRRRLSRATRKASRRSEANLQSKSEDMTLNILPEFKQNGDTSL
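Throughout, for Fold of Basal: compound tested at 1 µM final concentration.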
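Throughout, for GPCRome agonism screen response: fold over basal response of each receptor without drug.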

Sequence of 320 non-olfactory GPCRs (Homo sapiens, UniProt P21462) (P21462 whole entry): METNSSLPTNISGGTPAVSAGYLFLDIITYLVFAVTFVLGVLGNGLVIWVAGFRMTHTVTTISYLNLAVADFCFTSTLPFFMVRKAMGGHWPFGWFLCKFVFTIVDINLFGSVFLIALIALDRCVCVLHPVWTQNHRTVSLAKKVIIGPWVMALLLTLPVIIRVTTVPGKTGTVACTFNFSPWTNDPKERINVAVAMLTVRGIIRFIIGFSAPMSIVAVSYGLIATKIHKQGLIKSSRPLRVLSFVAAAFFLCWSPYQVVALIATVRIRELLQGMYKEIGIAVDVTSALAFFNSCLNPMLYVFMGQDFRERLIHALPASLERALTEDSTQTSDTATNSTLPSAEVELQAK

CCOc1cccc2cc(C(C)NCC3(O)CCCCC3)oc12 (stereo not shown) [O4LE6]
Fold of Basal (320 non-olfactory GPCRs [1]): 0.6589 and 0.3791 and 0.4925 and 0.3481
Fold of Basal (320 non-olfactory GPCRs [2]): 1.539 and 1.182 and 0.9454 and 0.9656
Fold of Basal (320 non-olfactory GPCRs [3]): 1.429 and 1.1388 and 0.8668 and 1.288
GPCRome agonism screen response (320 non-olfactory GPCRs [4]): 1.006 and 0.5483 and 1.2859 and 1.3533
